The source of these data is US4025622A, “Novel sugar ureide and thioureide derivatives” (Ogura; Haruo, priority 1974, dated 1977).

In brackets after ≈: the same amount, converted by molar mass.

For data set [1], the system named is Proteus vulgaris OX 19. Briefly: Minimum inhibitory concentration, standard serial dilution method. The format is cell-based. The note with it: 37° C.; for MIC: Proteus vulgaris, OX19, 24 h, inoculum size 1.2×10^5, Brain heart infusion broth; for MIC Proteus vulgaris OX 19: inoculum size 1.2×10^5, Brain heart infusion broth, 24 hours. On the procedure:
(§1) The minimum inhibitory concentration (mcg/ml) of a variety of the sugar ureide and thioureide derivatives according to this invention against various bacteria was determined in accordance with a standard serial dilution method using as medium Brain heart infusion broth (Difco) at 37° C. the determination being made after 24 hours incubation. The results are shown in Table 1 together with the results of test for ampicillin as reference.

The subject of data set [2] is Klebsiella pneumoniae. The description is as above. The format is cell-based. To be noted: 37° C.; for MIC: Klebsiella pneumoniae, 24 h, inoculum size 1.3×10^5, Brain heart infusion broth. The procedure:
as §1

The test system of data set [3] is Salmonella typhi O-901-W. Described as above. The format is cell-based. To be noted: 37° C.; for MIC: Salmonella enterica, TYPHI, 24 h, inoculum size 3.5×10^5, Brain heart infusion broth; for MIC Salmonella typhi O-901-W: inoculum size 3.5×10^5, Brain heart infusion broth, 24 hours. The procedure:
as §1

In data set [4] the test system is Escherichia coli IAM-1264. The data set is described as above. In kind it is cell-based. The note with it: 37° C.; for MIC: Escherichia coli, IAM1264, 24 h, inoculum size 1.9×10^5, Brain heart infusion broth. On the procedure: as §1
Data set [5] concerns Staphylococcus aureus 209 P. The data set is described as above. In kind it is cell-based. To be noted: inoculum size 3.8×10^5, Brain heart infusion broth, 37° C., 24 hours; for MIC: Staphylococcus aureus, 209P. On the procedure:
as §1

Data set [6] deals with Pseudomonas aeruginosa IAM-1007. Described as above. In kind it is cell-based. The note with it: 37° C.; for MIC: Pseudomonas aeruginosa, IAM1007, 24 h, inoculum size 1.3×10^5, Brain heart infusion broth. On the procedure: as §1
Data set [7] relates to mice. As to the kind of experiment: LDo value for mice by oral administration. In kind it is in vivo.
Data set [8] relates to Staphylococcus aureus No. 26. As to the kind of experiment: Minimum inhibitory concentration, standard serial dilution method. The format is cell-based. To be noted: 37° C.; for MIC: Staphylococcus aureus, NO.26, 24 h, inoculum size 2.3×10^5, Brain heart infusion broth. The procedure: as §1
[9] abbreviates: inoculum size 1.3×10^5, Brain heart infusion broth, 24 hours.

Regarding `CC(=O)OC[C@@H](OC(C)=O)[C@@H](OC(C)=O)[C@H](OC(C)=O)[C@@H](OC(C)=O)C(=O)NC(=S)N[C@@H](C(=O)N[C@@H]1C(=O)N2C(C(=O)O)=C(C)CS[C@H]12)c1ccccc1` [Example 28, 7-[D-α-(2,3,4,5,6-penta-O-acetyl-D-gluconylthioureido)-phenylacetamido] -3-methyl-3-cephem-4-carboxylic acid], the MIC in data set [1] was 100 µg/mL (≈ 126 µM); in data set [2], over 100 µg/mL; in data set [3], over 100 µg/mL; in data set [4] it was over 100 µg/mL; in data set [5] it was 12.5 µg/mL (≈ 15.7 µM); in data set [6] it was over 100 µg/mL. Further, in data set [7], the LDo is reported as over 1000 mg/kg.

With `CC(=O)O[C@H]1[C@H](OC(C)=O)[C@@H](NC(=S)N[C@@H](C(=O)N[C@@H]2C(=O)N3[C@@H]2SC(C)(C)[C@@H]3C(=O)O)c2ccccc2)OC[C@H]1OC(C)=O` [Example 10, Triethylammonium α-(2,3,4,-tri-O-acetyl-α-D-arabinopyranosylthioureido) benzylpenicillinate], the MIC was found to be 100 µg/mL in data set [8]; 50 µg/mL in data set [2]; 50 µg/mL in data set [4]; 3.12 µg/mL in data set [5]; 200 µg/mL in data set [6]. The “MIC Proteus vulgaris OX 19” value in data set [1] was over 100 µg/mL. Also, the “MIC Salmonella typhi O-901-W” value in data set [3] turned out to be 6.25 µg/mL. In addition, in data set [7], the LDo is reported as over 1000 mg/kg.

Regarding `CC(=O)OC[C@@H](OC(C)=O)[C@@H](OC(C)=O)[C@H](OC(C)=O)[C@@H](OC(C)=O)C(=O)NC(=S)N[C@@H](C(=O)N[C@@H]1C(=O)N2[C@@H]1SC(C)(C)[C@@H]2C(=O)O)c1ccccc1` [Example 17, α-(2,3,4,5,6-Penta-O-acetyl-D-gluconyl-thioureido) benzylpenicillin], the MIC in data set [8] was over 100 µg/mL; in data set [1], 1.56 µg/mL (≈ 1.96 µM); in data set [2], over 100 µg/mL; in data set [3], 50 µg/mL (≈ 62.7 µM); in data set [4], over 100 µg/mL; in data set [5] it was 0.78 µg/mL (≈ 0.979 µM). This molecule also gave an MIC in data set [6] of over 100 µg/mL. In data set [7], this molecule displayed an LDo of over 1000 mg/kg.

Turning to `CC(=O)O[C@H]1[C@H](OC(C)=O)[C@@H](NC(=S)N[C@@H](C(=O)N[C@@H]2C(=O)N3[C@@H]2SC(C)(C)[C@@H]3C(=O)O)c2ccccc2)OC[C@H]1OC(C)=O` [Example 13, α-(2,3,4-Tri-O-acetyl-α-D-arabinopyranosylthioureido) benzylpenicillin], in data set [8] (inoculum size 2.3×10^5, Brain heart infusion broth, 24 hours), the “MIC Staphylococcus aureus No. 26” value is over 100 µg/mL. Further, in data set [1], the “MIC Proteus vulgaris OX 19” value was found to be 25 µg/mL (≈ 37.5 µM). Besides, the “MIC Klebsiella pneumoniae” value in data set [2] (setting [9]) was over 100 µg/mL. Further, the “MIC Salmonella typhi O-901-W” value in data set [3] was over 100 µg/mL. Also, the “MIC Escherichia coli IAM-1264” value in data set [4] (inoculum size 1.9×10^5, Brain heart infusion broth, 24 hours) is over 100 µg/mL. Moreover, in data set [5], the “MIC Staphylococcus aureus 209 P” value is 3.12 µg/mL (≈ 4.68 µM). The “MIC Pseudomonas aeruginosa IAM-1007” value in data set [6] (setting [9]) is over 100 µg/mL.

As for `CC1(C)S[C@@H]2[C@H](NC(=O)[C@H](N)c3ccccc3)C(=O)N2[C@H]1C(=O)O` [Ampicillin, α-aminobenzylpenicillin, reference compound], the MIC is over 100 µg/mL in data set [8]; 100 µg/mL (≈ 286 µM) in data set [1]; 1.56 µg/mL (≈ 4.46 µM) in data set [2]; 0.39 µg/mL (≈ 1.12 µM) in data set [3]; 3.12 µg/mL (≈ 8.93 µM) in data set [4]; 0.1 µg/mL (≈ 0.286 µM) in data set [5]. Besides, the MIC in data set [6] is over 100 µg/mL. In data set [7], this molecule returned an LDo of over 1000 mg/kg.

A word on the MIC: it is the lowest concentration found to suppress growth.
